Data as given in ChEMBL document CHEMBL5579901, “Discovery of Novel [1,2,4]Triazolo[1,5-a]pyrimidine Derivatives as Novel Potent S-Phase Kinase-Associated Protein 2 (SKP2) Inhibitors for the Treatment of Cancer” (J Med Chem, 2024).
Activity calls are given as the source filed them. The calls are words filed in the database; no cut-off is given here.

Assays:
MGC-803 [1] = experiment: Induction of cell cycle arrest in human MGC-803 cells assessed as cells at G0/G1 phase at 15 uM incubated for 12 hrs by PI staining based flow cytometry (reference value: 57.9%); assay type: functional
PC-3 [2] = experiment: Upregulation of p21 protein expression in human PC-3 cells at 15 uM by Western blotting analysis; assay type: functional, cell-based; conditions: time 6-48 hrs, TDE = time-dependent effect
MGC-803 [3] = experiment: Induction of cell cycle arrest in human MGC-803 cells assessed as cells at G2/M phase at 15 uM incubated for 24 hrs by PI staining based flow cytometry (reference value: 20.8%); assay type: functional
PC-3 [4] = experiment: Induction of cell cycle arrest in human PC-3 cells assessed as cells at G0/G1 phase at 15 uM incubated for 12 hrs by PI staining based flow cytometry (reference value: 55.1%); assay type: functional
MGC-803 [5] = experiment: Induction of cell cycle arrest in human MGC-803 cells assessed as cells at G2/M phase at 15 uM incubated for 12 hrs by PI staining based flow cytometry (reference value: 20.8%); assay type: functional
MGC-803 [6] = experiment: Induction of cell cycle arrest in human MGC-803 cells assessed as cells at G2/M phase at 5 uM incubated for 36 hrs by PI staining based flow cytometry (reference value: 20.6%); assay type: functional
MGC-803 [7] = experiment: Induction of cell cycle arrest in human MGC-803 cells assessed as cells at S phase at 15 uM incubated for 48 hrs by PI staining based flow cytometry (reference value: 19.6%); assay type: functional
MGC-803 [8] = experiment: Upregulation of p27 protein expression in human MGC-803 cells at 5 to 15 uM incubated for 48 hrs by Western blotting analysis; assay type: functional, cell-based; conditions: dose 5-15 µM
[9] = Toxicity against NOD-SCID mouse assessed as change in heart morphology at 25 to 50 mg/kg, IG administered for 21 days by H and E staining based assay; assay type: organism-based; conditions: in vivo, po, 504 h, dose 25-50 mg/kg, time 21 day
[10] = target: Cyclin-dependent kinases regulatory subunit 1/S-phase kinase-associated protein 2 (Homo sapiens, UniProt Q13309); experiment: Inhibition of GST-tagged SKP2 (unknown origin) binding to His6-tagged CKS1 (unknown origin) preincubated with SKP2 for 10 mins followed by CKS1 addition for 20 mins and measured after by HTRF method; assay type: protein assay
Cyclin-dependent kinases regulatory subunit 1/S-phase kinase-associated protein 2, sequence (P61024 whole entry): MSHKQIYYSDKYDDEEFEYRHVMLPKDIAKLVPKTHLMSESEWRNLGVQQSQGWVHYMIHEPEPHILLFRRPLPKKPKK
Cyclin-dependent kinases regulatory subunit 1/S-phase kinase-associated protein 2, sequence (Q13309 whole entry): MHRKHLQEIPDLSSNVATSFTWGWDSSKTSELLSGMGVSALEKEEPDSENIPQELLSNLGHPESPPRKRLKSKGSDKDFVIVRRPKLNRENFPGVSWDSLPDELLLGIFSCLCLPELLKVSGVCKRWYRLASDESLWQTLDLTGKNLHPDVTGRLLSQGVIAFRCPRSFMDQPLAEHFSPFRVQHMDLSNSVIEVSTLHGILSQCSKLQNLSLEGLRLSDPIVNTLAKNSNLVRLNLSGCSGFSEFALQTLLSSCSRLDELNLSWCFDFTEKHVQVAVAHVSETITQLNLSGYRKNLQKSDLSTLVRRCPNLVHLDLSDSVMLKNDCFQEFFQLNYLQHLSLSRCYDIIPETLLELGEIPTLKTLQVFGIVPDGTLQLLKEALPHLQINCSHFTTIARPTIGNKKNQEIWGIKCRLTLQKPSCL

PC-3 [11] = experiment: Induction of cell cycle arrest in human PC-3 cells assessed as cells at G0/G1 phase at 15 uM incubated for 24 hrs by PI staining based flow cytometry (reference value: 55.1%); assay type: functional
PC-3 [12] = experiment: Induction of cell cycle arrest in human PC-3 cells assessed as cells at G2/M phase at 15 uM incubated for 36 hrs by PI staining based flow cytometry (reference value: 21.3%); assay type: functional
PC-3 [13] = experiment: Inhibition of colony formation in human PC-3 cells incubated for 10 days by crystal violet staining based inverted microscopic analysis; assay type: functional, cell-based; conditions: dose 1-3 µM, time 10.0 day
[14] = Volume of distribution at steady state in Sprague-Dawley rat at 1 mg/kg, iv measured upto 24 hrs by LC/MS-MS analysis; assay type: ADME, organism-based; conditions: in vivo
PC-3 [15] = experiment: Induction of cell cycle arrest in human PC-3 cells assessed as cells at G2/M phase at 15 uM incubated for 12 hrs by PI staining based flow cytometry (reference value: 21.4%); assay type: functional
MGC-803 [16] = experiment: Induction of cell cycle arrest in human MGC-803 cells assessed as cells at G2/M phase at 15 uM incubated for 48 hrs by PI staining based flow cytometry (reference value: 20.8%); assay type: functional
PC-3 [17] = experiment: Upregulation of p27 protein expression in human PC-3 cells at 15 uM by Western blotting analysis; assay type: functional, cell-based; conditions: time 6-48 hrs, TDE = time-dependent effect

For `COc1ccc(-c2cc(C)nc3nc(SCc4ccc(Br)cc4)nn23)c(OC)c1`, the Activity (MGC-803 [1]) was 44%, the Activity (PC-3 [2]) was “Tde” and the Activity (MGC-803 [3]) was 16.1%. For the same molecule, the Activity (PC-3 [4]) was 48.3%, the Activity (MGC-803 [5]) was 21.6% and the Activity (MGC-803 [6]) was 23.2%. The Activity (MGC-803 [7]) was 37.3%, the Activity (MGC-803 [8]) was “Active” and the Activity [9] was “Non-Toxic”. For the same molecule, the IC50 [10] was 4.86 µM, the Activity (PC-3 [11]) was 39.3% and the Activity (PC-3 [12]) was 16.3%. For the same molecule, the inhibition (PC-3 [13]) was “Dose-Dependent Effect”, the Vdss [14] was 8.87 L/kg and the Activity (PC-3 [15]) was 18.5%. The Activity (MGC-803 [16]) was 20.1% and the Activity (PC-3 [17]) was “Tde”.
